Source: article PMC3624796 (Journal of Medicinal Chemistry, 2013)

Target: T1, T4 lysozyme L99A/M102H† (Enterobacteria phage T4, UniProt P00720, C54T/C97A/E108V/L99A/M102H/N144D/S117V/S38D/T142C/T21C)
Assay type: binding
Settings: not given

First: O=[N+]([O-])c1ccc(O)cc1 [4-nitrophenol]
Second: N#Cc1cc(Br)ccc1O [5-bromo-2-hydroxybenzonitrile]
The “ΔGmelt (change of stability on ligand binding, ΔTm × ΔS)” value of the first is higher: 1.4 kcal/mol for the first, 0.6 kcal/mol for the second.

For `C=CSc1ccccc1` [phenyl vinyl sulfide], the “ΔGmelt (change of stability on ligand binding, ΔTm × ΔS)” value was 0.25 kcal/mol.

Target: T1, T4 lysozyme L99A/M102H†
Assay type: binding
Settings: crystal structure

First: C=CCc1ccccc1O [2-allyl phenol]
Second: C#CC(O)c1ccccc1 (stereo not drawn) [1-phenyl-2-propyn-1-ol, 1-phenyl-2-propyn-1-ol]
The “hydrogen bond distance between ligand and His102” value of the first is higher: 3.00 Å for the first, 2.77 Å for the second.

Compared with `Brc1c[nH]cn1` [4-bromoimidazole], `FC(F)(F)c1c[nH]cn1` [4-trifluoromethyl imidazole] is lower in “hydrogen bond distance between ligand and His102” value: 2.93 Å for the first, 2.85 Å for the second.

First: O=Cc1cc(O)ccc1Br [2-bromo-5-hydroxybenzaldehyde]
Second: Cc1cc(C(F)(F)F)n[nH]1 [3-methyl-5-(trifluoromethyl) pyrazole]
The “hydrogen bond distance between ligand and His102” value of the first is lower: 2.50 Å for the first, 2.90 Å for the second.

For `Nc1ncc(Cl)s1` [2-amino-5-chloro thiazole], the “hydrogen bond distance between ligand and His102” value was 2.89 Å.

System: T4 lysozyme L99A
Settings: cited from earlier work

For `Oc1ccccc1` [phenol], the “binding to L99A cavity” value is given as “does not measurably bind”.

Target: T1, T4 lysozyme L99A/M102H†
Assay type: binding
Settings: not given
Remark: another data set of the same source

For `O=[N+]([O-])c1ccc(O)cc1` [4-nitrophenol], the “interaction with His102 stronger than with Gln102 (double perturbation analysis)” value was 2.4 kcal/mol.
